These are literature values, as cited in patent US9950044B2, “Treatment of pulmonary vascular remodeling with neprilysin” (THE REGENTS OF THE UNIVERSITY OF COLORADO, A BODY CORPORATE, priority 2010, dated 2018).

For one series, the system named is NEP. To be noted: exogenous VIP; cited from earlier work.
Series [1] concerns human PA SMCs from IPAH patients. Conditions: cells from IPAH patients; cited from earlier work.
The subject of a further series is VIP KO mice. To be noted: IP injections every other day; cited from earlier work.
A further series relates to human IPAH patients. Conditions: cited from earlier work.
Setting [2] is: human IPAH patients, inhalation.

Consider “VIP: 28 amino acid peptide with a molecular weight of 3.33 kD”, for which, in the series on NEP, the “effect on NEP enzymatic activity” value was “did not affect”. Besides, in series [1], the “in vitro proliferation of human PA SMCs” value is “inhibited”. Besides, in the series on VIP KO mice, the PA medial thickening result is “reduced” and the RV hypertrophy result is on record as “reduced”. Further, in the series on human IPAH patients (setting [2]), the PaO2 entry is given as “significant improvement” and the exercise capacity result was “significant improvement”. Also, in the series with human IPAH patients (human, in vivo), the “untoward effects reported by subjects” value was “no untoward effects”.
